{"source": "ChEMBL document CHEMBL5729519", "about": "“Methods and composition of 4-substituted benzoylpiperazine-1-substituted carbonyls as beta-catenin/B-cell lymphoma 9 inhibitors” (2023)", "target": "beta-catenin-B-cell lymphoma 9 protein complex (Homo sapiens, UniProt P35222+O00512)", "sequence (O00512 whole entry, stated change not applied)": "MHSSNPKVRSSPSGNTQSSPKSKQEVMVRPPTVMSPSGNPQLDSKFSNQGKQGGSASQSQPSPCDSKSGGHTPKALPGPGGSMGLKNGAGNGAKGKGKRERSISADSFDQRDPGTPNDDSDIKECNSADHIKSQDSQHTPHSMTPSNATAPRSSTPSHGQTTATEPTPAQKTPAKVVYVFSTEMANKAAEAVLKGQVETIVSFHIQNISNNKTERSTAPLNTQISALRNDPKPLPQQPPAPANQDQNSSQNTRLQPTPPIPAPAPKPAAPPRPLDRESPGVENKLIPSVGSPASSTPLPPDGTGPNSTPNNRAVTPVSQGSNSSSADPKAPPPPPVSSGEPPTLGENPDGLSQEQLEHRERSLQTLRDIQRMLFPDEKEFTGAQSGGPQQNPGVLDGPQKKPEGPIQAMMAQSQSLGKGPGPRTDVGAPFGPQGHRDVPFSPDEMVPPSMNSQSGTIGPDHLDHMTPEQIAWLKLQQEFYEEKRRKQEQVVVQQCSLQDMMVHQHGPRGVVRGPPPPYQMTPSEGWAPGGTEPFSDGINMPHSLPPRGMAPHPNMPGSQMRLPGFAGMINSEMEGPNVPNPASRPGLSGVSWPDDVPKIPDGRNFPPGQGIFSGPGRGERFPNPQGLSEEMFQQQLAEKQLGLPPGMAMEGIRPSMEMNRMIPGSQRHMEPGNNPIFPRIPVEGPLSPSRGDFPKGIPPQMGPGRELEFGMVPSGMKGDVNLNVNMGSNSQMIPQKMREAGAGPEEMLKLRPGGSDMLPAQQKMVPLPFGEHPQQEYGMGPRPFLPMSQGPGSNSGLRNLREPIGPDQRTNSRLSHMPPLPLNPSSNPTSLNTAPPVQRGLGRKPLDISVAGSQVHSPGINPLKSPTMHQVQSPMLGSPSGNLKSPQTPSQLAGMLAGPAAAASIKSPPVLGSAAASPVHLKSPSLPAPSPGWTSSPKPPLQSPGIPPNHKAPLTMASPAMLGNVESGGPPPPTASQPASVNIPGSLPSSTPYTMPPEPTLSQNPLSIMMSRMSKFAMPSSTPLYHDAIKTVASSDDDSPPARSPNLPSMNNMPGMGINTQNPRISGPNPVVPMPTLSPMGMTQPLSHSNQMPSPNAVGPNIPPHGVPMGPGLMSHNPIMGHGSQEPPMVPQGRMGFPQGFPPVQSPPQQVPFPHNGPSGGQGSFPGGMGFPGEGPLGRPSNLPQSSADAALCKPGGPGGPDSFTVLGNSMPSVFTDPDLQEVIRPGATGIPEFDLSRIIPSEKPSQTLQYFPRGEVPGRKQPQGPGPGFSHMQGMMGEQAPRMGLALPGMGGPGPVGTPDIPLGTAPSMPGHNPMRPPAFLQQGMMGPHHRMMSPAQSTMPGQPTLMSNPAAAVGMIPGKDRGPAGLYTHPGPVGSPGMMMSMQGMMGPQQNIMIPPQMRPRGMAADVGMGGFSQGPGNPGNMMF", "sequence (P35222 2-781 limits assumed, stated change not applied)": "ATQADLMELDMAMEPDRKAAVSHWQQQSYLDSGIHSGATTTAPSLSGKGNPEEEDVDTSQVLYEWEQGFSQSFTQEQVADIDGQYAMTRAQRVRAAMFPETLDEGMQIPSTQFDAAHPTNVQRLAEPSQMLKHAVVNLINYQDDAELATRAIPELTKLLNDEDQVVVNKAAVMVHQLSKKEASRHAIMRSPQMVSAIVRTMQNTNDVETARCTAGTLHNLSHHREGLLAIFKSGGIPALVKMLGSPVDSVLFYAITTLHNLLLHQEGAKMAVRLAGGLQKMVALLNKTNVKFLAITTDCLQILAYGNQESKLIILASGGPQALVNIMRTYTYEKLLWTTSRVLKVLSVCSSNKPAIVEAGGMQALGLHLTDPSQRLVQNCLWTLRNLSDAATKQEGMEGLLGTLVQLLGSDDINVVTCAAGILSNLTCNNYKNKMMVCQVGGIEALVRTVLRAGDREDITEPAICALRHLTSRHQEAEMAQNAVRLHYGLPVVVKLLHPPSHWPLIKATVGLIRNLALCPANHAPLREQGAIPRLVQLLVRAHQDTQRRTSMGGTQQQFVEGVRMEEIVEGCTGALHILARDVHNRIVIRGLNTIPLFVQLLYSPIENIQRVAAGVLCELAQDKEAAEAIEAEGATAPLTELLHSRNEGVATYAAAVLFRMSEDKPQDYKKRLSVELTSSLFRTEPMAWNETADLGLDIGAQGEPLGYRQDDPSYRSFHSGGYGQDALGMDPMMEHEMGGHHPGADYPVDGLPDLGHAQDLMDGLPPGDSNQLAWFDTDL", "assay": "Alphascreen Assay: Alphascreen Assays to Determine the Apparent Kd Values for Wild-Type and Mutant β-Catenin/BCL9 InteractionsThe experimental detail using AlphaScreen to determine the apparent Kd values for β-catenin/BCL9 and β-catenine/E-cadherin PPIs has been described previously (Zhang et al. (2015) Anal. Biochem. 469: 43-53). The concentrations of mutant β-catenin proteins used in the assays were the same as that of wild-type β-catenin.", "assay_type": "protein-complex assay"}
{"smiles": "CC(C)c1cc2c(c(O)c1O)[C@@]1(C(=O)O)CCCC(C)(C)[C@@H]1CC2", "values": [{"measurement": "Ki", "result": 5.3, "unit": "µM"}]}
